# Results published in patent US20110021517A1, “ANTITUMOR COMBINATION COMPRISING A MORPHOLINYL ANTHRACYCLINE DERIVATIVE AND DEMETHYLATING AGENTS” (NERVIANO MEDICAL SCIENCES S.R.L., priority 2008, published 2011).
# Like-named read-outs stand apart in the source and are kept apart here.
# Key:
# L1210 cells = assay: Cytotoxic effect of nemorubicin on L1210 cells with or without pre-treatment with 5-aza-2′-deoxycytidine (cell counting, Coulter Counter); assay type: cell-based, murine; conditions: for IC50: 24 h nemorubicin treatment, read-out: IC50 (dose inhibiting 50% cell growth)
# Description: (§1) The effect of 5-aza-2′-deoxycytidine on the cytotoxic activity of morpholinyl anthracycline derivative (nemorubicin) was tested on a murine leukaemia cell line (L1210 cells). Cells were grown in RPMI 1640 medium supplemented with 10% foetal calf serum. Exponentially growing cells were seeded and exposed to 5-aza-2′-deoxycytidine immediately after seeding for 6 days, so as to allow efficient demethylation of the CpG islands. […] Six days following 5-aza-2′-deoxycytidine treatment, cells were diluted and treated with different concentrations of nemorubicin (50, 100, 200 and 500 nM) in comparison with cells not pretreated with the demethylating agent 5-aza-2′-deoxycytidine. In vitro drug sensitivity was determined by counting surviving cells by a Coulter Counter apparatus. The antiproliferative activity of the drug was evaluated after 24 h treatment and calculated from dose-response curves and expressed as dose inhibiting 50% cell growth (IC50). IC50 values were calculated from two-three independent experiments each consisting of at least three replicates. Combination indices (CI) were calculated using a computer program for multiple drug effect analysis based on the equation of Chou-Talalay (Adv Enzyme Regul 1984; 22:27-55) for mutually non-exclusive drugs. CI values <0.3-0.8 are indicative of synergism, 0.8-1.2 are indicative of additivity, […] are indicative of antagonism.
# L1210/MMRDX cells = assay: Cytotoxic effect of nemorubicin on nemorubicin-resistant L1210/MMRDX cells with or without pre-treatment with 5-aza-2′-deoxycytidine; assay type: cell-based, murine; conditions: for IC50: 24 h nemorubicin treatment, read-out: IC50 (dose inhibiting 50% cell growth)
# Description: as §1
# The effect of 5-aza-2′-deoxycytidine on the cytotoxic activity of nemorubicin was tested in comparison on L1210 cells and on the strain resistant to nemorubicin (L1210/MMRDX) (Geroni C. et al, Br J Cancer 9:315-19, 1994). Cells were grown in RPMI 1640 medium supplemented with 10% foetal calf serum. Exponentially growing cells were seeded and exposed to 5-aza-2′-deoxycytidine and nemorubicin as reported here above. In vitro drug sensitivity was determined by counting surviving cells by a Coulter Counter apparatus. The antiproliferative activity of the drug was evaluated after 24 h treatment and calculated from dose-response curves and expressed as IC50. IC50 values were calculated from two-three independent experiments each consisting of at least three replicates. Combination indices (CI) were calculated as described above.
substance,measurement,setting,value
"(8S-cis, 2″S)-7,8,9,10-tetrahydro-6,8,11-trihydroxy-8-(hydroxyacetyl)-1-methoxy-10-{[2,3,6-trideoxy-3-(2-methoxy-4-morpholinyl)-α-L-lyxo-hexopyranosyl]oxy}-5,12-naphthacenedione [nemorubicin]",IC50,L1210 cells; L1210 cells pretreated with 5-aza-2′-deoxycytidine for 6 days,130 nM
same,IC50,L1210 cells; L1210 cells untreated (no 5-aza-2′-deoxycytidine pretreatment),210 nM
same,Combination effect based on CI value (in words),"L1210 cells; combination of nemorubicin and 5-aza-2′-deoxycytidine, L1210 cells",synergistic effect
same,"CI (combination index, Chou-Talalay)","L1210 cells; nemorubicin combined with 5-aza-2′-deoxycytidine pretreatment, L1210 cells",0.14
same,IC50,L1210/MMRDX cells; L1210/MMRDX cells pretreated with 5-aza-2′-deoxycytidine,140 nM
same,IC50,L1210/MMRDX cells; L1210/MMRDX cells untreated (no 5-aza-2′-deoxycytidine pretreatment),480 nM
same,Combination effect based on CI value (in words),"L1210/MMRDX cells; combination of nemorubicin and 5-aza-2′-deoxycytidine, L1210/MMRDX cells",strong synergistic effect
same,"CI (combination index, Chou-Talalay)","L1210/MMRDX cells; nemorubicin combined with 5-aza-2′-deoxycytidine pretreatment, L1210/MMRDX cells",0.06
